Molecules are shown by their SMILES.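 Following 48 hours of exposure in 96-well plates, responses at five concentrations were used to interpolate endpoints linearly. At the GI50, growth is halved. TGI is the concentration that stops growth completely.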 A value given as a limit tells only on which side of the number the result lay.

Some test systems named below: ACHN renal; HOP-62 NSCLC; NCI-H23 lung; NCI-H522 lung; OVCAR-3 ovarian; OVCAR-4 ovarian; RPMI-8226 leukemia; SK-OV-3 ovarian; SW-620 colon; UACC-62 melanoma.
Assay in all cases: growth of human tumour cells (NCI), 48 h

As for `CCON1CC(C(=O)OC)=C(O)C1=O`, the TGI in the experiment with ACHN renal, in the experiment with HOP-62 NSCLC, in the experiment on NCI-H23 lung, with NCI-H522 lung, in the experiment on OVCAR-3 ovarian and in the experiment with OVCAR-4 ovarian was over 100 µM each time. The TGI in the experiment with RPMI-8226 leukemia, in the experiment on SK-OV-3 ovarian, in the experiment on SW-620 colon and with UACC-62 melanoma was over 100 µM each time.
For the molecule `OCc1ccc2c(c1)CC1(Cc3ccc(/C=N/O)cc3C1)C2` (stereo not given), the TGI in the experiment on ACHN renal is over 80.6 µM; with HOP-62 NSCLC it was over 76.7 µM; in the experiment with NCI-H23 lung, 56.3 µM; with NCI-H522 lung, 10.8 µM; in the experiment on OVCAR-3 ovarian, 17.1 µM; with OVCAR-4 ovarian it was over 61.7 µM. The TGI with RPMI-8226 leukemia is 28.6 µM; with SK-OV-3 ovarian, over 100 µM; with SW-620 colon it was over 100 µM; in the experiment with UACC-62 melanoma it was over 56.1 µM.
`COc1ccc(CN2C3CC2CN(c2ccc(-c4cc(OCC(C)(C)O)cn5ncc(C#N)c45)cn2)C3)cn1`: the GI50 is 6.86 µM with ACHN renal; 4.72 µM in the experiment on HOP-62 NSCLC; 17.8 µM in the experiment with NCI-H23 lung; 17.5 µM with NCI-H522 lung; over 100 µM in the experiment on OVCAR-3 ovarian; 3.63 µM in the experiment on OVCAR-4 ovarian. Moreover, the GI50 was over 100 µM with RPMI-8226 leukemia, 5.64 µM with SK-OV-3 ovarian, 4.49 µM in the experiment with SW-620 colon and over 100 µM with UACC-62 melanoma. Moreover, the TGI with ACHN renal was over 100 µM; in the experiment on HOP-62 NSCLC, 47.6 µM; in the experiment with NCI-H23 lung, over 100 µM; in the experiment on NCI-H522 lung, over 100 µM; in the experiment with OVCAR-3 ovarian, over 100 µM; with OVCAR-4 ovarian, over 100 µM. Besides, the TGI in the experiment on RPMI-8226 leukemia, with SK-OV-3 ovarian, with SW-620 colon and in the experiment with UACC-62 melanoma was over 100 µM throughout.
Take `N#Cc1c(-c2ccccc2)cc(-c2ccc(Cl)cc2)[nH]c1=S`: the TGI in the experiment with ACHN renal is over 100 µM; in the experiment on HOP-62 NSCLC, over 100 µM; in the experiment with NCI-H23 lung it was 38.2 µM; in the experiment on NCI-H522 lung it was 70.5 µM; with OVCAR-3 ovarian it was over 100 µM; in the experiment on OVCAR-4 ovarian, over 100 µM. Further, the TGI in the experiment with RPMI-8226 leukemia was 80.2 µM; in the experiment on SK-OV-3 ovarian, 77.6 µM; with SW-620 colon, over 100 µM; in the experiment on UACC-62 melanoma it was 92.1 µM.
As for `COC(=O)C1(Cc2ccc3c(c2)CCC3)Cc2ccccc2C1`, the TGI in the experiment with ACHN renal is over 100 µM; with HOP-62 NSCLC, over 100 µM; in the experiment on NCI-H23 lung, over 100 µM; in the experiment with NCI-H522 lung, 77.1 µM; in the experiment on OVCAR-3 ovarian, over 100 µM; with OVCAR-4 ovarian, 62.8 µM. Besides, the TGI was 54.6 µM in the experiment with RPMI-8226 leukemia, over 100 µM with SK-OV-3 ovarian, over 100 µM with SW-620 colon and over 100 µM with UACC-62 melanoma.
Regarding `CC(=O)OC1CCC2C3CCc4c(C)ccc(OS(=O)(=O)c5ccccc5)c4C3CCC12C` (stereo not given), the TGI is over 100 µM with ACHN renal; over 100 µM in the experiment on HOP-62 NSCLC; over 100 µM with NCI-H23 lung; over 100 µM in the experiment on NCI-H522 lung; 46.7 µM in the experiment with OVCAR-3 ovarian; 88.4 µM in the experiment with OVCAR-4 ovarian. Moreover, the TGI in the experiment on RPMI-8226 leukemia, with SK-OV-3 ovarian, with SW-620 colon and in the experiment with UACC-62 melanoma was over 100 µM in each case.
For the molecule `CC12CCCC3(CC(=O)C(C)(C)C3C(=O)C1)C2` (stereo not given), the TGI in the experiment with ACHN renal, in the experiment with HOP-62 NSCLC, in the experiment with NCI-H23 lung, in the experiment on NCI-H522 lung, in the experiment on OVCAR-3 ovarian and in the experiment on OVCAR-4 ovarian was over 100 µM in each case. Besides, the TGI with RPMI-8226 leukemia, in the experiment with SK-OV-3 ovarian, with SW-620 colon and in the experiment with UACC-62 melanoma was over 100 µM throughout.
`COC1CC(OC2CCC3(C)C(=CCC4C3C(OC(C)=O)C(OC(=O)CC(C)C)C3(C)C(C(C)=O)CCC43O)C2)OC(C)C1OC1CC(OC)C(OC2CC(OC)C(OC3OC(C)C(OC4OC(CO)C(O)C(O)C4O)C(OC)C3O)C(C)O2)C(C)O1` (stereo not given): the TGI in the experiment on ACHN renal, in the experiment on HOP-62 NSCLC, in the experiment on NCI-H23 lung, with NCI-H522 lung, with OVCAR-3 ovarian and in the experiment with OVCAR-4 ovarian was over 75 µM in each case. The TGI in the experiment on RPMI-8226 leukemia, with SK-OV-3 ovarian, in the experiment on SW-620 colon and with UACC-62 melanoma was over 75 µM each time.
On to `O=C1CSC2=NC3=C(COC/C3=C\c3ccc(Br)cc3)C(c3ccc(Br)cc3)N12` (stereo not given), for which the TGI in the experiment with ACHN renal, in the experiment with HOP-62 NSCLC, in the experiment on NCI-H23 lung, in the experiment with NCI-H522 lung, in the experiment with OVCAR-3 ovarian and with OVCAR-4 ovarian was over 100 µM throughout. In addition, the TGI in the experiment on RPMI-8226 leukemia, with SK-OV-3 ovarian, in the experiment with SW-620 colon and in the experiment on UACC-62 melanoma was over 100 µM in each case.
With `CCOC(=O)c1nc2cc(C(F)(F)F)ccc2nc1Nc1ccc(C(=O)NC(C(=O)OCC)C(=O)OCC)cc1`, the TGI with ACHN renal is 63.1 µM; in the experiment with HOP-62 NSCLC, 41 µM; in the experiment with NCI-H23 lung it was over 100 µM; with NCI-H522 lung, 40.3 µM; with OVCAR-3 ovarian it was over 100 µM; in the experiment with OVCAR-4 ovarian, 33.1 µM. The TGI with RPMI-8226 leukemia is 65.8 µM; in the experiment with SK-OV-3 ovarian it was 42.1 µM; with SW-620 colon it was over 100 µM; in the experiment with UACC-62 melanoma, 27.6 µM.
Regarding `Cn1c2ccccc2c(=O)c2c(O)cc3c(c21)C=CC1(CCCCC1)O3`, the TGI in the experiment with ACHN renal, in the experiment with HOP-62 NSCLC, in the experiment with NCI-H23 lung, in the experiment on NCI-H522 lung, in the experiment on OVCAR-3 ovarian and in the experiment on OVCAR-4 ovarian was over 10 µM in each case. In addition, the TGI in the experiment with RPMI-8226 leukemia, with SK-OV-3 ovarian, with SW-620 colon and with UACC-62 melanoma was over 10 µM each time.
